Data from ChEMBL document CHEMBL1201862, “PubChem BioAssay data set” (2004).
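Protocol summary: plate cells (96-well), add compound at 5 concentrations, incubate 48 h, interpolate endpoints linearly. Here, GI50 denotes the concentration required for 50% inhibition of growth.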 Active and inactive are the calls of the source. Cut-off read from the data, not from the text of the source: active = GI50 up to about 1.1 µM and inactive = higher.

Assays:
Test in all cases: NCI tumour cell line growth inhibition, 48 h
786-0 = tested on: 786-0
RPMI-8226 = tested on: RPMI-8226
K562 = tested on: K562
SF-268 = tested on: SF-268
HT-29 = tested on: HT-29
EKVX = tested on: EKVX
SN12C = tested on: SN12C
UACC-257 = tested on: UACC-257
A498 = tested on: A498
U-251 = tested on: U-251
MOLT-4 = tested on: MOLT-4
SK-MEL-5 = tested on: SK-MEL-5
ACHN = tested on: ACHN
SNB-19 = tested on: SNB-19
UACC-62 = tested on: UACC-62
HOP-62 = tested on: HOP-62
OVCAR-4 = tested on: OVCAR-4
M14 = tested on: M14

Measured: GI50

Cc1nc(-n2nc(-c3ccccc3)cc2-c2ccccc2)sc1C(=O)/C=C/c1cccc([N+](=O)[O-])c1
inactive: 786-0 12.7 µM | RPMI-8226 4.76 µM | K562 8.75 µM | SF-268 12.3 µM | HT-29 12.7 µM | EKVX 34.7 µM | SN12C 19.8 µM | UACC-257 22.5 µM | A498 20.2 µM | U-251 15.2 µM | MOLT-4 6.04 µM | SK-MEL-5 12.7 µM | ACHN 23.3 µM | SNB-19 11.4 µM | UACC-62 13.8 µM | HOP-62 15.9 µM

O=C(O)C1=C(C(=O)O)Oc2ccccc2O1
inactive: 786-0 > 100 µM | K562 > 100 µM | OVCAR-4 > 100 µM | SF-268 > 100 µM | HT-29 > 100 µM | EKVX > 100 µM | SN12C > 100 µM | UACC-257 > 100 µM | A498 > 100 µM | U-251 > 100 µM | MOLT-4 > 100 µM | ACHN > 100 µM | SNB-19 > 100 µM | M14 > 100 µM | UACC-62 > 100 µM | HOP-62 > 100 µM

CCOC(=O)C1COc2cc(-c3cc(=O)c4ccccc4o3)ccc2O1 (centres undefined)
inactive: 786-0 > 100 µM | K562 > 100 µM | OVCAR-4 42.9 µM | SF-268 > 100 µM | HT-29 22.8 µM | EKVX 95.1 µM | SN12C 29.5 µM | U-251 > 100 µM | MOLT-4 > 100 µM | SK-MEL-5 > 100 µM | ACHN > 100 µM | SNB-19 > 100 µM | M14 > 100 µM | UACC-62 36.8 µM

O=C1Cc2nc(CO)c(CO)c(CO)c2CO1
inactive: 786-0 > 100 µM | RPMI-8226 > 100 µM | K562 > 100 µM | SF-268 > 100 µM | HT-29 > 100 µM | EKVX > 100 µM | SN12C > 100 µM | UACC-257 > 100 µM | A498 > 100 µM | U-251 > 100 µM | SK-MEL-5 > 100 µM | ACHN > 100 µM | SNB-19 > 100 µM | M14 > 100 µM | UACC-62 > 100 µM | HOP-62 > 100 µM

C=CCC(N(C)C(=O)[C@H](Cc1ccccc1)NC(=O)OCc1ccccc1)P(=O)(Oc1ccccc1)Oc1ccccc1 (some centres undefined)
inactive: 786-0 > 100 µM | RPMI-8226 6.81 µM | K562 9.2 µM | SF-268 > 100 µM | HT-29 > 100 µM | EKVX > 100 µM | SN12C > 100 µM | UACC-257 > 100 µM | U-251 > 100 µM | MOLT-4 2.77 µM | ACHN 6.5 µM | SNB-19 > 100 µM | M14 > 100 µM | UACC-62 > 100 µM | HOP-62 > 100 µM

COc1ccc(CNc2cnc3ccc(N)cc3n2)cc1OC
inactive: 786-0 > 100 µM | RPMI-8226 > 100 µM | K562 > 100 µM | OVCAR-4 > 100 µM | SF-268 > 100 µM | HT-29 > 100 µM | EKVX > 100 µM | SN12C > 100 µM | UACC-257 > 100 µM | MOLT-4 > 100 µM | SK-MEL-5 > 100 µM | ACHN > 100 µM | SNB-19 > 100 µM | M14 > 100 µM | HOP-62 > 10 µM

CC1C[C@@]2(c3ccccc3)C(=O)CCC[C@H]2N1 (some centres undefined)
inactive: 786-0 > 100 µM | K562 > 100 µM | OVCAR-4 > 100 µM | SF-268 > 100 µM | HT-29 > 100 µM | EKVX > 100 µM | SN12C > 100 µM | UACC-257 > 100 µM | A498 > 100 µM | U-251 > 100 µM | MOLT-4 > 100 µM | SK-MEL-5 > 100 µM | ACHN > 100 µM | SNB-19 > 100 µM | M14 > 100 µM | UACC-62 > 100 µM | HOP-62 > 100 µM
